What was measured:
Assay in all cases: relative viability (nuclei count vs DMSO), 5 days (fraction); higher = more cells survive
Etoposide + Phenformin = compound: COc1cc([C@@H]2c3cc4c(cc3[C@@H](O[C@@H]3O[C@@H]5CO[C@@H](C)O[C@H]5[C@H](O)[C@H]3O)[C@H]3COC(=O)[C@H]23)OCO4)cc(OC)c1O [Etoposide] + N=C(N)NC(=N)NCCc1ccccc1 [Phenformin] (partner 250 µM)
Procedure, shortened: (§1)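 Medians of duplicate plates are given as relative viability. That measure is the nuclei count in treated wells divided by the count in vehicle wells. Counts were taken on 4× images of lung cancer cell lines in 1536-well plates, 5 days after pin-tool dosing the day after seeding with one drug alone or a fixed anchor-drug dose plus five library-drug doses (not always all listed) in √10 steps.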

Etoposide + Alpelisib = compound: COc1cc([C@@H]2c3cc4c(cc3[C@@H](O[C@@H]3O[C@@H]5CO[C@@H](C)O[C@H]5[C@H](O)[C@H]3O)[C@H]3COC(=O)[C@H]23)OCO4)cc(OC)c1O [Etoposide] + Cc1nc(NC(=O)N2CCC[C@H]2C(N)=O)sc1-c1ccnc(C(C)(C)C(F)(F)F)c1 [Alpelisib] (partner 2 µM)
Procedure, shortened: as §1

Etoposide + Palbociclib = compound: COc1cc([C@@H]2c3cc4c(cc3[C@@H](O[C@@H]3O[C@@H]5CO[C@@H](C)O[C@H]5[C@H](O)[C@H]3O)[C@H]3COC(=O)[C@H]23)OCO4)cc(OC)c1O [Etoposide] + CC(=O)c1c(C)c2cnc(Nc3ccc(N4CCNCC4)cn3)nc2n(C2CCCC2)c1=O [Palbociclib] (partner 0.5 µM)
Procedure, shortened: as §1

Etoposide + Tozasertib = compound: COc1cc([C@@H]2c3cc4c(cc3[C@@H](O[C@@H]3O[C@@H]5CO[C@@H](C)O[C@H]5[C@H](O)[C@H]3O)[C@H]3COC(=O)[C@H]23)OCO4)cc(OC)c1O [Etoposide] + Cc1cc(Nc2cc(N3CCN(C)CC3)nc(Sc3ccc(NC(=O)C4CC4)cc3)n2)n[nH]1 [Tozasertib] (partner 0.1 µM)
Procedure, shortened: as §1

Cell Line | relative viability (Etoposide + Phenformin; first compound 0.01 µM) | relative viability (Etoposide + Phenformin; first compound 0.03162 µM) | relative viability (Etoposide + Phenformin; first compound 0.1 µM) | relative viability (Etoposide + Phenformin; first compound 0.3162 µM) | relative viability (Etoposide + Phenformin; first compound 1 µM) | relative viability (Etoposide + Alpelisib; first compound 0.01 µM) | relative viability (Etoposide + Alpelisib; first compound 0.03162 µM) | relative viability (Etoposide + Alpelisib; first compound 0.1 µM) | relative viability (Etoposide + Alpelisib; first compound 0.3162 µM) | relative viability (Etoposide + Alpelisib; first compound 1 µM) | relative viability (Etoposide + Palbociclib; first compound 0.01 µM) | relative viability (Etoposide + Palbociclib; first compound 0.03162 µM) | relative viability (Etoposide + Palbociclib; first compound 0.1 µM) | relative viability (Etoposide + Palbociclib; first compound 0.3162 µM) | relative viability (Etoposide + Palbociclib; first compound 1 µM) | relative viability (Etoposide + Tozasertib; first compound 0.01 µM) | relative viability (Etoposide + Tozasertib; first compound 0.03162 µM) | relative viability (Etoposide + Tozasertib; first compound 0.1 µM) | relative viability (Etoposide + Tozasertib; first compound 0.3162 µM) | relative viability (Etoposide + Tozasertib; first compound 1 µM)
CAL-12T | 0.594 | 0.612 | 0.586 | 0.409 | 0.221 | 1.15 | 1.2 | 1.32 | 0.799 | 0.306 | 0.346 | 0.505 | 0.299 | 0.306 | 0.285 | 0.256 | 0.297 | 0.408 | 0.264 | 0.28
NCI-H2087 | 0.407 | 0.508 | 0.435 | 0.278 | 0.143 |  | 0.985 | 1.01 | 0.512 | 0.255 | 0.211 | 0.19 | 0.214 | 0.215 | 0.193 | 0.214 | 0.248 | 0.233 | 0.205 | 0.166
LXF-289 | 0.568 | 0.534 | 0.585 | 0.421 | 0.153 | 1.02 | 1.07 | 1.04 | 0.655 | 0.244 | 0.618 | 0.606 | 0.621 | 0.487 | 0.331 | 0.209 | 0.166 | 0.196 | 0.111 | 0.0978
NCI-H520 | 0.487 | 0.585 |  | 0.619 | 0.502 | 0.873 | 0.925 | 0.965 | 0.836 | 0.906 | 0.256 | 0.245 | 0.193 | 0.254 | 0.227 | 0.427 | 0.408 |  | 0.462 | 0.396
NCI-H1944 | 0.189 | 0.275 | 0.213 | 0.148 | 0.123 | 0.742 | 0.969 | 0.645 | 0.564 | 0.249 | 0.315 | 0.358 | 0.233 | 0.231 | 0.198 | 0.258 | 0.278 | 0.211 | 0.182 | 0.168
NCI-H2009 | 0.492 | 0.505 | 0.492 | 0.416 | 0.342 | 1.12 | 1.18 | 1.19 | 1.06 | 0.388 | 0.203 | 0.213 | 0.145 | 0.25 | 0.148 | 0.767 | 0.745 | 0.782 | 0.557 | 0.431
201T | 0.45 | 0.51 | 0.381 | 0.368 | 0.322 | 1.02 | 1.06 | 0.921 | 0.94 | 0.691 | 0.366 | 0.35 | 0.325 | 0.349 | 0.385 | 0.824 | 0.995 | 0.886 | 0.709 | 0.465
NCI-H2347 | 0.39 | 0.446 | 0.345 | 0.247 | 0.294 | 1.11 | 0.99 | 0.615 | 0.455 | 0.406 | 0.314 | 0.397 | 0.375 | 0.381 | 0.346 | 0.518 | 0.554 | 0.419 | 0.433 | 0.291

From the supplement of paper PMC10307832
